Source: ChEMBL document CHEMBL1201862, “PubChem BioAssay data set” (2004)
Active and inactive are the calls of the source.

Columns and labels:
Leucine aminopeptidase = molecular target: T1, Leucine aminopeptidase (Plasmodium falciparum 3D7, UniProt Q8IL11); assay: P. falciparum M17LAP inhibitors, primary screen, biochemical, fluorogenic H-Leu-NHMec substrate, 1536-well (AID 1619); format: functional
T1 sequence (Q8IL11 whole entry): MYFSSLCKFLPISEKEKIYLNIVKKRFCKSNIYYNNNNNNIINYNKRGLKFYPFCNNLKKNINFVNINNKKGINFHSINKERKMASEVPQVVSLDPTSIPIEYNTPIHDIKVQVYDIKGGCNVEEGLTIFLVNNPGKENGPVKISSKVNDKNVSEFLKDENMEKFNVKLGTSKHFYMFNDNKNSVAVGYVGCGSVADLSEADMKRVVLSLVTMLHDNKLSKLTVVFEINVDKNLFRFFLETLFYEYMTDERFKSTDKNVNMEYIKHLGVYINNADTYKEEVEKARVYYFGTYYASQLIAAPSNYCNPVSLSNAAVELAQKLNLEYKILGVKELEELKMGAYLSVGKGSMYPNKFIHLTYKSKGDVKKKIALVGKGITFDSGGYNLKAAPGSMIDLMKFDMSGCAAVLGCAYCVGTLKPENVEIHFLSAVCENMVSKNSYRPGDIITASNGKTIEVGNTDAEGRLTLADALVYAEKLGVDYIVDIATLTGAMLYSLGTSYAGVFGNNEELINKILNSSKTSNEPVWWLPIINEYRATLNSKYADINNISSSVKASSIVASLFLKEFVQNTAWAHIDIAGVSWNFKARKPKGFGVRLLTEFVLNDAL

cells = format: functional
[1] = tested on: Streptococcus sp. 'group A'; assay: Streptococcus pyogenes SK(-)GAS viability under kanamycin – luminescence, BacTiterGlo, confirmation, counter-screen for streptokinase expression inhibitor project, dose response (AID 1900); format: functional, organism-based
Streptococcus = assay: GAS UMAA2166 growth inhibition – luminescence, BacTiterGlo, counter-screen for streptokinase expression inhibitor project, dose response (AID 1915); format: functional, organism-based;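 also: potency for reduction of bacterial viability or growth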
INS1 = assay: INS-1E survival protection against cytokine death – cell-based, luminescence, retest, dose response (AID 449756); format: functional; conditions: Rattus norvegicus;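 also: cell death triggered by IL-1 beta plus TNF-alpha plus IFN-gamma mixture; protective hits raise ATP signal compared with cytokine alone wells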
[2] = HPDE-C7 pancreatic duct cell viability loss – fluorescence, HTS (AID 430); format: functional, cell-based; conditions: Homo sapiens
[3] = viability loss of HPDE-C7K cells – cell-based, fluorescence, HTS, primary screen (AID 431); format: functional; conditions: Homo sapiens
Caspase-6 = molecular target: T2, Caspase-6 (Homo sapiens, UniProt P55212); assay: inhibition of CASP6 peptide cleavage – biochemical, VEID-R110 fluorescence, cherry-pick, dose response (AID 720632)
T2 sequence (P55212 whole entry): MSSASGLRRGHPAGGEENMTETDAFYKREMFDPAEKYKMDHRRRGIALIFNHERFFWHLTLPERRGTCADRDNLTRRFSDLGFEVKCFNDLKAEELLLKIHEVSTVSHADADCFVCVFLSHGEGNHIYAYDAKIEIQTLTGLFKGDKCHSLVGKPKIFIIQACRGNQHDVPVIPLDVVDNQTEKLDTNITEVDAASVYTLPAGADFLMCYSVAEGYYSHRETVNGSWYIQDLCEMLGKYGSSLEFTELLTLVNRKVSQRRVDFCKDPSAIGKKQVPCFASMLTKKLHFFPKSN

[4] = NIH-3T3 fibroblast cytotoxicity, dose response, cytotoxicity control, cell-based, fluorescence, Alamar Blue, secondary assay (AID 2327); format: functional;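 also: NIH-3T3 mouse fibroblasts cultured with fluconazole at 8 µg/mL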
[5] = molecular target: Transitional endoplasmic reticulum ATPase (Homo sapiens, UniProt P55072, C522A); assay: C522A mutant p97 ATPase inhibitors, dose response, counter-screen for p97 inhibitor project, biochemical, luminescence (AID 1544)
[6] = fluconazole-exposed Candida albicans growth modulators – fluorescence, retest, confirmation (AID 2467); format: functional, cell-based
[7] = molecular target: Transitional endoplasmic reticulum ATPase (Homo sapiens, UniProt P55072); assay: p97 ATPase inhibitors, dose response, biochemical (AID 1534)
Streptokinase A = molecular target: T3, Streptokinase A (Streptococcus pyogenes serotype M1, UniProt P10520); assay: viability-normalized secreted streptokinase activity reduction – plasminogen activation absorbance, OD405, dose response (AID 1914); format: functional, Streptococcus pyogenes M1 GAS;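 also: secreted streptokinase activity via plasminogen activation per viability signal from cell pellet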
T3 sequence (P10520 whole entry): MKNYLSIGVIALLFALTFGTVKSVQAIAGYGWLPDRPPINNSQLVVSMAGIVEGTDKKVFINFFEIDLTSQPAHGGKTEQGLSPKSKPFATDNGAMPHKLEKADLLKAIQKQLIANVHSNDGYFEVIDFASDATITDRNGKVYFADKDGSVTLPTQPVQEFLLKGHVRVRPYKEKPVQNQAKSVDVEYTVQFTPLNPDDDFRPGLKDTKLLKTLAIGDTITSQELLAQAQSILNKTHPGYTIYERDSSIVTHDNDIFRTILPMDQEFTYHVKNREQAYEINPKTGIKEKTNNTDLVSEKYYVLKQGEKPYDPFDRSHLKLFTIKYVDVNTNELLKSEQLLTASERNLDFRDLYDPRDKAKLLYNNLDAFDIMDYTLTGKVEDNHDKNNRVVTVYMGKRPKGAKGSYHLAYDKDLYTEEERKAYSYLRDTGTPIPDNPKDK

[8] = toxicity to human HepG2 hepatoma cells – cell-based, plate reader, dry powder samples, cytotoxicity control, dose response (AID 1159569); format: functional;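 also: inhibitor potency with signal falling toward the positive control level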
[9] = P. falciparum Dd2 growth inhibitors, dose response, SYBR Green, cherry-picked samples (AID 1159567); format: functional, cell-based
[10] = Dd2 malaria parasite growth inhibition potency – SYBR Green, dry powder samples, dose response (AID 1159566); format: functional, cell-based;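 also: potency for growth inhibition with lower SYBR green DNA signal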
[11] = growth inhibition of PfATP4-mutant resistant parasites – NITD609-resistant line, SYBR Green, dry powder, dose response (AID 1159571); format: functional, cell-based;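 also: parasites synchronized at ring stage by sorbitol before testing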
[12] = growth inhibition of yeast DHODH-expressing 3D7 parasites – SYBR Green, dry powder samples, dose response (AID 1159570); format: functional, cell-based;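 also: parasite growth measured after 72 hours of compound exposure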

Transitional endoplasmic reticulum ATPase (Homo sapiens, UniProt P55072), sequence (P55072 whole entry): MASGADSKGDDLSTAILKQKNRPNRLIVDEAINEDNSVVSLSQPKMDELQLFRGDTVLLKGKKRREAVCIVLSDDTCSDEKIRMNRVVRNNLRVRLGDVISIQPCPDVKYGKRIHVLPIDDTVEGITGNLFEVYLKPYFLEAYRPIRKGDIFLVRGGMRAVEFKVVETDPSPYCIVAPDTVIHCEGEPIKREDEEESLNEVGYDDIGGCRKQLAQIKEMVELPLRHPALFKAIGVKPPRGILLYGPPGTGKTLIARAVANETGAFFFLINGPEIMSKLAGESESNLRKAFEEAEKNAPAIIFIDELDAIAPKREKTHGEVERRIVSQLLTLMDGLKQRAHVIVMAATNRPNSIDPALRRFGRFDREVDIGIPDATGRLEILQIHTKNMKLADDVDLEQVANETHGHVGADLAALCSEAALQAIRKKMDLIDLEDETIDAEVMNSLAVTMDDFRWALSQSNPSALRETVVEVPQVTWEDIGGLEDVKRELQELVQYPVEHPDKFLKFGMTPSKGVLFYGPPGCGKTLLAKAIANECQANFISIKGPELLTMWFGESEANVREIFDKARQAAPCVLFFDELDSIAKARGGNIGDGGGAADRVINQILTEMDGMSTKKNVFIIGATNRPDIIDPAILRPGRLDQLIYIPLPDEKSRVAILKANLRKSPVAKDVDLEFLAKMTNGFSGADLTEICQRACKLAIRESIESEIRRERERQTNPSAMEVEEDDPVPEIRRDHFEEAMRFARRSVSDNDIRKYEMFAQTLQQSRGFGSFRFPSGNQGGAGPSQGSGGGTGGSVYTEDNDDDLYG
Transitional endoplasmic reticulum ATPase (Homo sapiens, UniProt P55072, C522A), sequence (P55072 2-806 C522A limits assumed): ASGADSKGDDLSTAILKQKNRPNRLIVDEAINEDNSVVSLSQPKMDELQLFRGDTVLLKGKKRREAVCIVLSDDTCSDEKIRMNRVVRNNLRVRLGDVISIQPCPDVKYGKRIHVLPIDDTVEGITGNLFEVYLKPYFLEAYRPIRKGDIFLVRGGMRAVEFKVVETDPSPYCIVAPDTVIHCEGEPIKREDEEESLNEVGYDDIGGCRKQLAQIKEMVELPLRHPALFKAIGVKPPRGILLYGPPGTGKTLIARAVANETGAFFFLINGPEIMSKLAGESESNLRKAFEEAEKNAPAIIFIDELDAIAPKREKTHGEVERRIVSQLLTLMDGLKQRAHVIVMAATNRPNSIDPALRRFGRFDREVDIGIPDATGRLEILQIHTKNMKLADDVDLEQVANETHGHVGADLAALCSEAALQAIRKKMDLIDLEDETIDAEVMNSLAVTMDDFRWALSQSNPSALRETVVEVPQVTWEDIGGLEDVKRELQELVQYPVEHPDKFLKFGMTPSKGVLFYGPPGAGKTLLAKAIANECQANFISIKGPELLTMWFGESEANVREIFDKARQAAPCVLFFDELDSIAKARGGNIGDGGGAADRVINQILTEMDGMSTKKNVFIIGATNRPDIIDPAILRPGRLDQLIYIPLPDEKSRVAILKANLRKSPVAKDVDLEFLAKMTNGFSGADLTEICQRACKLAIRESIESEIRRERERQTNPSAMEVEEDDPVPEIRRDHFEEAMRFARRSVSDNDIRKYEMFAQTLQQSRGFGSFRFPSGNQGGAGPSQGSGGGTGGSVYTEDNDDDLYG

O=P(NS(=O)(=O)c1ccc(Br)cc1)(Oc1ccccc1)Oc1ccccc1
IC50 (Leucine aminopeptidase): 30.1 µM (active)

COC(=O)c1ccc(Cn2cc(C(F)(F)F)cc([N+](=O)[O-])c2=O)cc1
IC50 (cells): 1.28 µM (active)

Oc1ccc(COCc2ccccc2)c2cccnc12
EC50 [1]: 2.14 µM (active)
EC50 (Streptococcus): 3.25 µM (active)
AC50 (INS1): 1.77 µM (active)
EC50 [2]: 10.4 µM (active)
EC50 [3]: 8.49 µM (active)

CCc1ccc(-c2nn(Cc3ccccc3)cc2/C=C/C(=O)O)cc1
IC50 (Leucine aminopeptidase): 31.5 µM (active)

CC(NC(=O)COc1ccc(-c2ccccc2)cc1)C1CCCO1 (stereo unspecified)
IC50 (cells): 45.6 µM (active)

CC(C)CN1C(=O)NC2(CCCc3ccccc32)C1=O (stereo unspecified)
AC50 (Caspase-6): 51.7 µM (active)

Cc1ccc(SC/C(O)=C(\C#N)c2nc3ccccc3s2)cc1
EC50 [1]: 2.95 µM (active)
EC50 [4]: 138 µM (active)
IC50 [5]: > 50 µM (not active)
EC50 (Streptococcus): 7.74 µM (active)
EC50 [6]: 0.425 µM (active)
IC50 [7]: > 50 µM (not active)
EC50 (Streptokinase A): > 150 µM (not active)

COc1ccc(-c2ccccc2[C@H]2[C@@H](C#N)N(C(=O)NC3CCCCC3)[C@H]2CO)cc1
AC50 [8]: > 100 µM (inactive)
AC50 [9]: 3.13 µM (active)
AC50 [10]: 3.88 µM (active)
AC50 [11]: 8.21 µM (active)
AC50 [12]: 4.54 µM (active)

COc1ccccc1NC(=O)N1CCCCN2[C@H](CO)[C@H](c3ccc(C#Cc4ccccc4)cc3)[C@@H]2C1
AC50 [8]: > 100 µM (inactive)
AC50 [9]: < 0.3 µM (active)
AC50 [10]: 0.118 µM (active)
AC50 [11]: 0.0817 µM (active)
AC50 [12]: 0.0745 µM (active)

CO[C@H]1CN(C)C(=O)c2cc(NC(=O)c3ccccc3F)ccc2OC[C@H](C)N(C(=O)c2ccccc2F)C[C@H]1C
AC50 [8]: > 100 µM (inactive)
AC50 [9]: 2.47 µM (active)
AC50 [10]: 1.78 µM (active)
AC50 [11]: 1.53 µM (active)
AC50 [12]: 2.93 µM (active)

CO[C@H]1CN(C)C(=O)c2ccc(NC(=O)Nc3ccc(C(F)(F)F)cc3)cc2OC[C@H](C)NC[C@H]1C
AC50 [8]: 26.9 µM (active)
AC50 [9]: 3.01 µM (active)
AC50 [10]: 2.16 µM (active)
AC50 [11]: 2.17 µM (active)
AC50 [12]: 1.37 µM (active)

CCCCC(=O)O[C@H]1CC[C@H]2[C@@H]3CCc4cc(O)ccc4[C@H]3CC[C@]12C [ESTRADIOL VALERATE]
EC50 [1]: 2.3 µM (active)
EC50 (Streptococcus): 2.29 µM (active)
EC50 [2]: 18.9 µM (active)
EC50 [3]: > 20 µM (not active)
